# Values joined by “and” are separate entries in the source; they are usually repeats but may differ in a detail not shown here. Equal entries are not always repeated. “Also recorded” adds a separate entry of the source.
# Columns and labels:
# [1] = Stability study (ICH Q1A(R2)) of the emulsion; assay type: physicochemical; details: accelerated condition
# Method: In this section, stability study is conducted using the abovementioned Example 1 as an example. The stability study is performed according to common practices known such as ICH HARMONISED TRIPARTITE GUIDELINE-Topic Q1A(R2) <Stability Testing of new Drug Substances and Products> and inspection items are screened based on USP chapter 771 and 1771. The stability study is carried out under two conditions: temperature of 5° C.±3° C. with no humidity; and temperature of 25° C.±2° C. with the relative humidity of 60%±5%. LBN content is determined with an HPLC equipped with an UV detector and using a mixture of two mobile phases. The HPLC condition reports as the following: [table]
# [2] = tested on: patients diagnosed with open angle glaucoma; experiment: Blood pressure, ocular perfusion pressure and heart rate measurement; assay type: in vivo, human; details: for MOPP (mean ocular perfusion pressure): baseline 48.82 ± 7.10; for MOPP (mean ocular perfusion pressure) / MHR (mean heart rate) / MBP (mean blood pressure): mean ± SD; for MHR (mean heart rate): baseline 74.03 ± 8.95; for MBP (mean blood pressure): baseline 99.69 ± 9.90
# Excerpt: (§1) The patients diagnosed with open angle glaucoma in total are 35 eyes of 20 patients, wherein 10 eyes are diagnosed as POAG, and 25 eyes are NTG, besides 2 eyes had received prior corneal refractive surgery, and 1 eye had undergone cataract extraction and intraocular lens implantation. In the aspect of the medication using, 20 eyes are treatment naïve upon entry of the study (that is they are not using IOP lowering medication), and 15 eyes are previously treated with IOP lowering medication. The IOP lowering medication in the treated patients were requested for the following medication washout period: 4 weeks for beta-blockers and prostaglandin analogues, 2-4 weeks for alpha-agonists, and 1 week for carbonic anhydrase inhibitors in order to eliminate the experimental errors.
# (§2) All patients are received the best corrected visual acuity test (BCVA), IOP measurement, optical coherence tomography (OCT), laser speckle flowgraph (LSFG) evaluation, fundus photo, visual field examination, blood pressure (BP), and heart rate measurement, and then these obtained data are averaged as the baseline data of the experiment, but the intraocular eye disease other than OAG, significant cataract influencing refractive errors or visual field result, systemic disease with resultant visual field defect, and unreliable LSFG results are excluded.
# [3] = tested on: optic nerve head area; experiment: Laser speckle flowgraph (LSFG) evaluation, mean blur rate and pulse waveform; assay type: in vivo, human; details: for MS (mean skew): baseline 11.92 ± 3.94; for MS (mean skew) / MBRt (mean blur rate of tissue area) / MF (mean fluctuation) / MATI (mean acceleration time index) / MBRv (mean blur rate of vessel area) / MBOT (mean blowout time) / MBOS (mean blowout score): mean ± SD; for MBRt (mean blur rate of tissue area): baseline 12.65 ± 3.57; for MF (mean fluctuation): baseline 13.76 ± 3.79; for MATI (mean acceleration time index): baseline 32.62 ± 5.80; for MBRv (mean blur rate of vessel area): baseline 40.24 ± 10.65; for MBOT (mean blowout time): baseline 50.53 ± 8.53; for MBOS (mean blowout score): baseline 75.27 ± 6.51; for MBRt (%), percentage of baseline / MBRv (%), percentage of baseline: baseline 100.0 ± 0
# Excerpt: as §1, §2
# In the LSFG evaluation, one drop of said emulsion is instilled in the examined eyes at clinic. Afterward, LSFG measurements are repeated at 30 minutes and 2 hours post-LBN instillation. The patients would continuously instill the emulsion once every night for one month, and return to clinic again for another LSFG exam. Laser speckle flowgraph (LSFG-NAVI version 3.1.39.2 software, Softcare Ltd., Fukuoka, Japan) are used to measure the mean blur rate (MBR) of the optic nerve head area for pulse waveform analysis in all patients. Averaged MBR and pulse waveform parameters are documented at each LSFG measurement in order to evaluate the effect of latanoprostene bunod using on microcirculation of optic nerve head.
# [4] = tested on: patients diagnosed with open angle glaucoma; experiment: IOP measurement after emulsion instillation; assay type: in vivo, human; details: baseline 17.68 ± 4.11, mean ± SD
# Excerpt: as §1
# as §2, with “excluded. […]” for “excluded.”
# [5] = all time points, Wilcoxon signed rank test
compound,measurement,setting,value
"O=C(CCC/C=C\C[C@@H]1[C@@H](CC[C@@H](O)CCc2ccccc2)[C@H](O)C[C@@H]1O)OCCCCO[N+](=O)[O-] [LBN, Latanoprostene bunod]",assay of LBN upon storage,[1],remained unchanged
same,MOPP (mean ocular perfusion pressure),[2]; 1 month,50.80 ± 12.06 mmHg
same,MHR (mean heart rate),[2]; 1 month,72.03 ± 10.68 min⁻¹
same,MBP (mean blood pressure),[2]; 1 month,98.08 ± 12.06 mmHg
same,MOPP (mean ocular perfusion pressure),[2]; 30 minutes,47.87 ± 8.07 mmHg
same,MBP (mean blood pressure),[2]; 30 minutes,99.62 ± 11.54 mmHg
same,MOPP (mean ocular perfusion pressure),[2]; 2 hours,48.65 ± 9.48 mmHg
same,MHR (mean heart rate),[2]; 2 hours,77.77 ± 11.11 min⁻¹
same,MBP (mean blood pressure),[2]; 2 hours,98.88 ± 14.12 mmHg
same,"mean blood pressure (MBP), difference from baseline",[2]; [5],not significantly different
same,"mean ocular perfusion pressure (MOPP), difference from baseline",[2]; [5],not significantly different; also recorded: has not differed
same,MS (mean skew),[3]; 1 month,10.99 ± 2.30 AU
same,MBRt (mean blur rate of tissue area),[3]; 1 month,12.67 ± 3.80 AU
same,MF (mean fluctuation),[3]; 1 month,13.44 ± 3.31 AU
same,MATI (mean acceleration time index),[3]; 1 month,31.71 ± 4.11%
same,MBRv (mean blur rate of vessel area),[3]; 1 month,45.49 ± 12.22 AU
same,MBOT (mean blowout time),[3]; 1 month,52.67 ± 6.62 AU
same,MBOS (mean blowout score),[3]; 1 month,77.26 ± 6.26 AU
same,"MBRt (%), percentage of baseline",[3]; 1 month,101.84 ± 15.33%
same,"MBRv (%), percentage of baseline",[3]; 1 month,113.91 ± 26.53%
same,MS (mean skew),[3]; 30 minutes,11.84 ± 2.08 AU
same,MBRt (mean blur rate of tissue area),[3]; 30 minutes,12.48 ± 3.04 AU
same,MF (mean fluctuation),[3]; 30 minutes,13.94 ± 4.30 AU
same,MATI (mean acceleration time index),[3]; 30 minutes,31.51 ± 4.04%
same,MBRv (mean blur rate of vessel area),[3]; 30 minutes,41.95 ± 10.03 AU
same,MBOT (mean blowout time),[3]; 30 minutes,49.76 ± 6.17 AU
same,MBOS (mean blowout score),[3]; 30 minutes,74.44 ± 7.60 AU
same,"MBRt (%), percentage of baseline",[3]; 30 minutes,100.63 ± 14.37%
same,"MBRv (%), percentage of baseline",[3]; 30 minutes,105.97 ± 16.49%
same,MS (mean skew),[3]; 2 hours,11.82 ± 2.58 AU
same,MBRt (mean blur rate of tissue area),[3]; 2 hours,12.73 ± 3.46 AU
same,MF (mean fluctuation),[3]; 2 hours,13.46 ± 3.95 AU
same,MBRv (mean blur rate of vessel area),[3]; 2 hours,45.14 ± 10.59 AU
same,MBOT (mean blowout time),[3]; 2 hours,52.09 ± 5.56 AU
same,MBOS (mean blowout score),[3]; 2 hours,76.24 ± 6.67 AU
same,"MBRt (%), percentage of baseline",[3]; 2 hours,101.84 ± 13.71%
same,"MBRv (%), percentage of baseline",[3]; 2 hours,114.36 ± 20.02% and 114.36 ± 20.2 %
same,"mean blur rate of tissue area (MBRt), difference from baseline",[3]; [5],not significantly different
same,MIOP (mean intraocular pressure),[4]; 30 minutes after instillation,18.29 ± 4.00 mmHg
same,MIOP (mean intraocular pressure),[4]; 2 hours after instillation,17.24 ± 4.14 mmHg

# — US20230330104A1, “PRESERVATIVE-FREE OPHTHALMIC PHARMACEUTICAL EMULSION AND ITS APPLICATION” (Caravel Therapeutics, Inc., priority 2022, published 2023)
